Results as given in patent publication US20130149250A1, “HYPERPOLARIZED AGENTS FOR MRI CHARACTERIZATION OF REDOX SYSTEMS IN VIVO” (The Regents of the University of California, priority 2011, published 2013).
“Also recorded” adds a separate entry of the source. Each block holds one molecule with its values, some of them ahead of it.

Legend:
[1] = T1 studies of hyperpolarized ascorbates on a 3 T MRI scanner; format: physicochemical; conditions: spin-lattice relaxation of C1 carbon at 3 T; mean±SD
Procedure: (§1) The RF coil used in these experiments was a dual-tuned ^1H-^13C coil with a quadrature ^13C channel and linear ^1H channel construction used in ^13C mouse imaging studies. ^13C MRSI studies were carried out as previously published. 350 μl (mice) or 2 mL (rats) of a hyperpolarized 15 mM [1-^13C] DHA solution were injected similar to previously described methods for [1-^13C]pyruvate. Similar experiments were performed on a set of normal mice using hyperpolarized [1-^13C] Vitamin C at 50 mM.
(§2) In vitro methods to interrogate redox chemistry have relied on designer redox-sensitive fluorescent proteins (yellow- or green fluorescent protein) incorporating an artificial dithiol-disulfide pair, or on detection of ROS themselves via chemical switching. In general, fluorescent probes have limited clinical translation given poor tissue penetration; making MR-compatible hyperpolarized ^13C probes an attractive alternative. […] The material was polarized by using a DNP approach and dissolved with a hot water/EDTA solution, with T1's calculated as previously described. […] Vitamin C carbons are tabulated at both 11.7 T and 3 T, with the longest recorded T1 that of [1-^13C] […] Vitamin C were measured as 5.9±0.5% and 3.6±0.1% respectively, representing signal enhancements on the order of approximately 24,000 and 15,000-fold relative to thermal equilibrium at 3 T. […]

[2] = 11.7 T NMR studies (T1 of hyperpolarized ascorbates); format: physicochemical; conditions: spin-lattice relaxation of C1 carbon at 11.7 T; mean±SD
Procedure: NMR studies were performed on an 11.7 T Varian NOVA spectrometer (125 MHz ^13C, Varian Instruments) using a 10 mm ^15N/^31P/^13C broadband direct detect probe. Thermal and dynamic hyperpolarized spectra for [1-^13C] DHA and [1-^13C] Vitamin C were obtained as previously described, and used to calculate T1's and signal enhancements. For NMR studies of the reduction of [1-^13C] DHA to [1-^13C] Vitamin C, hyperpolarized [1-^13C] DHA was reacted with an excess of sodium cyanoborohydride (NaBH3CN).
as §2

[3] = DNP hyperpolarization (HyperSense, OX063 trityl radical): build-up and polarization; format: physicochemical; conditions: for Percent Polarization: DNP, 15 mM OX063; for Percent Polarization / Buildup Constant: mean±SD; for Buildup Constant: solid-state build-up constant
normal mice [4] = test: Dynamic 13C MR spectroscopy after injection of hyperpolarized probe in normal mice; format: in vivo, mouse
Procedure: as §1
Evidence of in vivo transformation was determining having obtained data validating hyperpolarized [1-^13C] DHA as a redox probe. The transport of DHA in vivo occurs by a mechanism analogous to that of glucose, by facilitated diffusion using GLUT1, GLUT3, and GLUT4. Since glucose is known to compete with the uptake of DHA, in vivo experiments were performed on animals (mice and rats) fasted overnight. […] Dynamic MRSI studies were carried out as previously published. 350 μl of a hyperpolarized 15 mM [1-^13C] DHA solution were injected similar to previously described methods for [1-^13C] pyruvate, in normal mice with a ^13C urea phantom present for chemical shift reference. In a separate set of normal mice, similar experiments were performed using hyperpolarized [1-^13C] Vitamin C at a slightly higher concentration, 50 mM. […] DHA in a normal mouse. The DHA resonance at 174 ppm reached a maximum at 19±1.7 secs post injection. […] Vitamin C in vivo. This chemical shift was confirmed both in vitro at neutral pH using ^13C urea as a reference, as well as in vivo with hyperpolarized [1-^13C] Vitamin C itself injected in a separate animal.

TRAMP tumors [5] = conditions: TRAMP mice, PET 50 minutes post injection
Procedure: FDG-PET: PET scans were performed on a small animal PET/CT scanner (Inveon, Siemens Healthcare, Malvern, Pa.). Mice were fasted overnight, anesthetized, and injected intravenously with 150-170 uCi FDG in 0.1-0.2 mL saline. PET images were acquired 50 minutes post injection in one 600 second frame. CT images were acquired in 120 projections of continuous rotation to cover 220° with x-ray tube operating at 80 kVp, 0.5 mA, and 175 ms exposure time. The matrix size of the reconstructed CT images was 512×512×662 with an isotropic voxel size of 0.191×0.191×0.191 mm^3 PET images were reconstructed using a manufacturer-provided ordered subsets expectation maximization (OS-EM) algorithm resulting in a 128×128×159 matrices with a voxel size of 0.776×0.776×0.796 mm^3 ROIs were drawn in both the tumors and surrounding tissue to calculate relative tumor signals.

TRAMP mice = conditions: mouse, in vivo
Procedure: as §1
(§3) Tissues with high exposure to environmental toxins, namely the liver, kidney and lungs, are known to be rich in GSH and were considered the most likely source for the hyperpolarized [1-^13C] Vitamin C signal observed in vivo. In addition, a contribution from highly glycolytic tissues was anticipated, given the rapid transport properties of dehydroascorbate. Analogous to experiments performed previously using hyperpolarized [1-^13C]pyruvate, 3D MRSI studies were conducted on a series of normal mice (n=3), TRAMP mice (n=3), and rats (n=3) using a dual-tuned RF coil.

normal mice [6] = conditions: mouse, in vivo
Procedure: as §1, §3

rat brains = conditions: in vivo
Procedure: as §1, §3

MCD mouse liver = test: HP DHA 13C MRSI of liver in methionine choline deficient (MCD) diet NAFLD mouse model; format: in vivo
Procedure: Prior to and post diet, high-resolution T2 and fat-water imaging was conducted at 14 T using a Varian WB600 micro-imager and 40 mm 1H millipede coil (Varian Instruments, Palo Alto, Calif.). Lipid percentage maps were calculated from fat and water images acquired using a conventional spin-echo sequence using the Dixon method. 350 μL of hyperpolarized DHA was injected each mouse (n=4) at baseline and 2 weeks of MCD diet using a Hypersense (Oxford Instruments). 13C MRSI data was acquired using an EPSI readout, variable flip angle scheme, matrix size 16×8×8 and final voxel resolution of 6 mm isotropic on a 3 T GE MRI (GE Healthcare, Waukesha, Wis.) equipped with a multinuclear package and dual-tuned 1H-^13C imaging coil. […] Ratios of HP DHA and VitC were calculated from the peak integrals in 3D MRSI data. Mice were then sacrificed and liver tissue was sectioned for staining with hematoxylin and eosin (H&E, structure) and Oil Red (lipid presence). Livers of normal mice were used for histologic comparison.

TRAMP tumors [7] = test: HP [1-13C] DHA 3D MRSI in TRAMP mice (Example 4); format: in vivo, mouse
Description: Hyperpolarization and dissolution of [1-^13C] DHA: [1-^13C] DHA dimer was polarized and dissolved.

3T T1 [1]: 29.2 ± 2.5 s | 11.7T T1 [2]: 16.0 ± 0.8 s | Percent Polarization [3]: 3.6±0.1% | Buildup Constant [3]: 1756 ± 97 s
Compound: O=[13C]1O[C@H]([C@@H](O)CO)C(O)=C1O [[1-^13C] Vitamin C, [1-^13C] ascorbic acid]
in vivo oxidation of hyperpolarized [1-13C] Vitamin C to [1-13C] DHA (normal mice [4]; 50 mM hyperpolarized [1-13C] Vitamin C, normal mice): trace oxidation; also recorded: trace conversion

Compound: O=C[C@H]([18F])[C@@H](O)[C@H](O)[C@H](O)CO [FDG, 2-18F-2-deoxy-D-glucose]
18F signal in regions of tumor relative to surrounding regions (TRAMP tumors [5]): 6.8±3.6

11.7T T1 [2]: 20.5 ± 0.9 s | Percent Polarization [3]: 5.9±0.5% | signal enhancement relative to thermal equilibrium ([3]; at 3 T): approximately 24,000 fold | Buildup Constant [3]: 1120 ± 50 s | time of maximum of DHA resonance (174 ppm) post injection (normal mice [4]; mouse, in vivo): 19 ± 1.7 s | time of maximum of metabolite resonance (177.8 ppm, [1-13C] Vitamin C) (normal mice [4]; mouse, in vivo): 29 ± 1.7 s | VitC/Total Carbon (TRAMP mice): 0.29±0.09 | Vitamin C signal (normal mice [6]): no Vitamin C signal was observed | VitC/Total Carbon (rat brains): 0.51±0.1 | VitC/DHA ratio (MCD mouse liver; after 2 weeks on MCD diet): 0.46±0.1 | VitC/VitC+DHA (MCD mouse liver; after 2 weeks on MCD diet): 0.30±0.5 | decrease in the VitC/DHA ratio from baseline (MCD mouse liver; after 2 weeks on MCD diet, P=0.005): 92% | decrease in the VitC/VitC+DHA ratio from baseline (MCD mouse liver; after 2 weeks on MCD diet, P=0.01): 48% | VitC/DHA ratio (MCD mouse liver; baseline): 0.98±0.09 | VitC/VitC+DHA (MCD mouse liver; baseline (normal liver)): 0.49±02 | Total HP 13C in tumors relative to surrounding tissue (TRAMP tumors [7]; TRAMP mice): 2.1±0.4 | tumor HP VitC/[VitC+DHA] relative to surrounding tissue (TRAMP tumors [7]; TRAMP mice): 7.0±2.3 | HP VitC (ratio of VitC to total HP signal) (TRAMP tumors [7]; TRAMP tumors (N=4)): 0.23±0.03 | HP VitC (ratio of VitC to total HP signal) (TRAMP tumors [7]; benign prostate, P=0.001): 0.06±0.03 | HP VitC (ratio of VitC to total HP signal) (TRAMP tumors [7]; surrounding tissues, P=0.005): 0.05±0.02
Compound: O=C1C(=O)[13C](=O)O[C@@H]1[C@@H](O)CO [[1-^13C] DHA, [1-^13C] dehydroascorbate]
